{"source": "paper PMC10056485", "about": "(International Journal of Molecular Sciences, 2023)", "origin": "cited, not measured here", "key": {"[1]": {"conditions": "cited from earlier work"}, "[2]": {"set-up": "method as in PMID 32533042", "conditions": "cited from earlier work; for Complete recanalization rate: p = 0.014"}}, "note": "Where two headings read alike, the source gives them in different places."}
{"smiles": "COc1cc2nccc(Oc3ccc(NC(=O)NC4CC4)c(Cl)c3)c2cc1C(N)=O", "note": "[lenvatinib]", "values": [{"measurement": "Increase of AUC of lenvatinib", "setting": "[1]; sequential RT9Gyx3f'x group", "value": 2, "unit": "fold"}]}
{"smiles": "CNC(=O)c1cc(Oc2ccc(NC(=O)Nc3ccc(Cl)c(C(F)(F)F)c3)c(F)c2)ccn1", "note": "[regorafenib]", "values": [{"measurement": "Increase of AUC of regorafenib", "setting": "[1]; sequential RT9Gyx3f'x group", "value": 1.3, "unit": "fold"}]}
{"smiles": "CNC(=O)c1cc(Oc2ccc(NC(=O)Nc3ccc(Cl)c(C(F)(F)F)c3)cc2)ccn1", "note": "[sorafenib]", "values": [{"measurement": "Increase of AUC of sorafenib", "setting": "[1]; concurrent RT9Gy groups", "value": 4, "unit": "fold"}, {"measurement": "Increase of AUC of sorafenib", "setting": "[1]; sequential RT9Gy group", "value": 1.6, "unit": "fold"}, {"measurement": "Complete recanalization rate, SBRT relative to conventional RT", "setting": "[2]; SBRT with sorafenib versus conventional RT", "value": 3, "unit": "fold"}, {"measurement": "Complete recanalization rate", "setting": "[2]; SBRT with sorafenib", "value": 28, "unit": "%"}, {"measurement": "Complete recanalization rate", "setting": "[2]; conventional RT with sorafenib", "value": 8, "unit": "%"}]}
